Key:
[1] = 298.15 K; 101.33 kPa; Liquid
[2] = xn = mol fraction of the nth substance listed; details: 298.15 K, 101.33 kPa, Liquid
[3] = excess molar enthalpy (molar enthalpy of mixing); xn = mol fraction of the nth substance listed; details: 298.15 K, 101.33 kPa, Liquid

COC(F)(F)C(F)(F)C(F)(F)C(F)(F)F [1-methoxy-nonafluorobutane]
Details | mass density [kg/m3]
[1] | 1516.5

COC(F)(F)C(F)(F)C(F)(F)C(F)(F)F [1-methoxy-nonafluorobutane] + CCCCOCCO
Details | excess molar enthalpy, [3] [kcal/mol] | mass density, [2] [kg/m3]
x1 = 0.02507 | – | 915.04
x1 = 0.05001 | 0.04 | –
x1 = 0.05002 | – | 932.88
x1 = 0.1 | 0.0726 | –
x1 = 0.1001 | – | 969.14
x1 = 0.1499 | – | 1004.19
x1 = 0.1998 | – | 1038.73
x1 = 0.2 | 0.122 | –
x1 = 0.2497 | – | 1072.68
x1 = 0.2995 | – | 1105.83
x1 = 0.3 | 0.157 | –
x1 = 0.3499 | – | 1138.71
x1 = 0.4001 | 0.18 | –
x1 = 0.41 | – | 1176.96
x1 = 0.4499 | – | 1201.93
x1 = 0.5001 | 0.195 | –
x1 = 0.5155 | – | 1242.24
x1 = 0.5499 | – | 1262.86
x1 = 0.5501 | 0.2 | –
x1 = 0.5999 | – | 1292.53
x1 = 0.6001 | 0.202 | –
x1 = 0.65 | – | 1321.64
x1 = 0.6501 | 0.203 | –
x1 = 0.6999 | – | 1350.17
x1 = 0.7 | 0.2 | –
x1 = 0.7499 | – | 1378.23
x1 = 0.75 | 0.194 | –
x1 = 0.8 | 0.184 | 1405.94
x1 = 0.85 | 0.168 | –
x1 = 0.8502 | – | 1433.58
x1 = 0.9 | 0.142 | –
x1 = 0.9002 | – | 1461.09
x1 = 0.95 | 0.1 | 1488.03
x1 = 0.9749 | – | 1501.9
x1 = 0.975 | 0.0629 | –
x1 = 1 | – | 1516.5

COC(F)(F)C(F)(F)C(F)(F)C(F)(F)F [1-methoxy-nonafluorobutane] + CCOCCO
Details | excess molar enthalpy [kcal/mol] | mass density [kg/m3]
[2], x1 = 0.00503 | – | 929.7
[2], x1 = 0.01079 | – | 934.97
[2], x1 = 0.02102 | – | 944.32
[2], x1 = 0.02987 | – | 952.74
[2], x1 = 0.04002 | – | 961.9
[2], x1 = 0.04998 | – | 970.86
[2], x1 = 0.05985 | – | 979.66
[2], x1 = 0.07003 | – | 988.6
[2], x1 = 0.07976 | – | 997.21
[2], x1 = 0.09179 | – | 1007.4
[2], x1 = 0.09978 | – | 1014.34
[2], x1 = 0.1998 | – | 1094.44
[2], x1 = 0.2999 | – | 1166.16
[2], x1 = 0.3998 | – | 1230.34
[2], x1 = 0.4998 | – | 1288.32
[2], x1 = 0.5999 | – | 1340.92
[2], x1 = 0.6998 | – | 1389.17
[2], x1 = 0.7996 | – | 1433.24
[2], x1 = 0.9003 | – | 1475.39
[2], x1 = 0.9098 | – | 1479.22
[2], x1 = 0.9198 | – | 1482.97
[2], x1 = 0.9304 | – | 1487.24
[2], x1 = 0.9399 | – | 1491.41
[2], x1 = 0.9502 | – | 1495.54
[2], x1 = 0.9587 | – | 1499
[2], x1 = 0.969 | – | 1503.23
[2], x1 = 0.9802 | – | 1507.87
[2], x1 = 0.9901 | – | 1512.09
[2], x1 = 0.9949 | – | 1514.04
[2], x1 = 1 | – | 1516.5
[3], x1 = 0.05001 | 0.0376 | –
[3], x1 = 0.1 | 0.0615 | –
[3], x1 = 0.2 | 0.0937 | –
[3], x1 = 0.3 | 0.117 | –
[3], x1 = 0.4001 | 0.135 | –
[3], x1 = 0.5001 | 0.149 | –
[3], x1 = 0.5501 | 0.153 | –
[3], x1 = 0.6001 | 0.158 | –
[3], x1 = 0.6501 | 0.159 | –
[3], x1 = 0.7 | 0.159 | –
[3], x1 = 0.75 | 0.157 | –
[3], x1 = 0.8 | 0.151 | –
[3], x1 = 0.85 | 0.141 | –
[3], x1 = 0.9 | 0.121 | –
[3], x1 = 0.95 | 0.0866 | –
[3], x1 = 0.9507 | 0.0867 | –
[3], x1 = 0.975 | 0.056 | –

Reference: the NIST ThermoML archive (doi:10.1016/j.jct.2005.02.011)
